Measurements from ChEMBL document CHEMBL1124183, “Conformations of complexes between mitomycins and decanucleotides. 3. Sequence specificity, binding at C-10, and mitomycin analogues” (1988).

Organism: Mus musculus
Experiment: Minimum effective dose (MED) of compound against P388 Leukemia in mice was determined
Format: functional
Conditions: read-out: MED

Structure (SMILES) | minimal effective dose
CO[C@@]12C(COC(N)=O)c3c(O)c(N=C4C=CC(=O)C=C4)c(C)c(O)c3N1CC1NC12 (some centres undefined) | 0.1 mg/kg
CO[C@@]12[C@H](COC(N)=O)C3=C(C(=O)C(C)=C(N)C3=O)N1C[C@@H]1N[C@@H]12 [MITOMYCIN] | 0.2 mg/kg
CO[C@@]12C(COC(N)=O)C3=C(C(=O)C(C)=C(NC=[N+](C)C)C3=O)N1CC1NC12 (some centres undefined) | 0.05 mg/kg
CO[C@@]12C(COC(N)=O)C3=C(C(=O)C(C)=C(NCCS)C3=O)N1CC1NC12 (some centres undefined) | 0.2 mg/kg
